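Test compounds were applied to cells in 96-well plates for 48 hours at 5 doses. Definition used: TGI = concentration required for complete inhibition of growth.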
Assays:
Test in all cases: inhibition of tumour cell growth, NCI panel, 48 h
COLO 205 colon = test system: COLO 205 colon
K-562 leukemia = test system: K-562 leukemia
A549 NSCLC = test system: A549 NSCLC
NCI-H522 lung = test system: NCI-H522 lung
RXF 393 renal = test system: RXF 393 renal
OVCAR-8 ovarian = test system: OVCAR-8 ovarian
UACC-257 melanoma = test system: UACC-257 melanoma
UACC-62 melanoma = test system: UACC-62 melanoma
IGROV1 ovarian = test system: IGROV1 ovarian
HL-60(TB) leukemia = test system: HL-60(TB) leukemia
MOLT-4 leukemia = test system: MOLT-4 leukemia
OVCAR-5 ovarian = test system: OVCAR-5 ovarian
MALME-3M melanoma = test system: MALME-3M melanoma
SF-539 CNS = test system: SF-539 CNS
HCC-2998 colon = test system: HCC-2998 colon
SNB-19 CNS = test system: SNB-19 CNS
LXFL 529 NSCLC = test system: LXFL 529 NSCLC
OVCAR-4 ovarian = test system: OVCAR-4 ovarian
SF-295 CNS = test system: SF-295 CNS
CAKI-1 renal = test system: CAKI-1 renal
M14 melanoma = test system: M14 melanoma
DMS 114 small cell lung = test system: DMS 114 small cell lung
HT29 colon = test system: HT29 colon
DMS 273 small cell lung = test system: DMS 273 small cell lung
HCT-116 colon = test system: HCT-116 colon
SNB-78 CNS = test system: SNB-78 CNS
NCI-H460 lung = test system: NCI-H460 lung
SK-MEL-28 melanoma = test system: SK-MEL-28 melanoma
HCT-15 colon = test system: HCT-15 colon
KM12 colon = test system: KM12 colon
RPMI-8226 leukemia = test system: RPMI-8226 leukemia
U251 CNS = test system: U251 CNS
786-0 renal = test system: 786-0 renal
SW-620 colon = test system: SW-620 colon
TK-10 renal = test system: TK-10 renal
KM20L2 colon = test system: KM20L2 colon
EKVX NSCLC = test system: EKVX NSCLC
SK-MEL-2 melanoma = test system: SK-MEL-2 melanoma
HOP-92 NSCLC = test system: HOP-92 NSCLC
M19-MEL melanoma = test system: M19-MEL melanoma
XF 498 CNS = test system: XF 498 CNS
UO-31 renal = test system: UO-31 renal
SK-MEL-5 melanoma = test system: SK-MEL-5 melanoma
OVCAR-3 ovarian = test system: OVCAR-3 ovarian
SN12C renal = test system: SN12C renal
SNB-75 CNS = test system: SNB-75 CNS
DLD-1 colon = test system: DLD-1 colon
HOP-62 NSCLC = test system: HOP-62 NSCLC
NCI-H226 lung = test system: NCI-H226 lung
LOX IMVI melanoma = test system: LOX IMVI melanoma
CCRF-CEM leukemia = test system: CCRF-CEM leukemia
SF-268 CNS = test system: SF-268 CNS
ACHN renal = test system: ACHN renal
A498 renal = test system: A498 renal
RXF-631 renal = test system: RXF-631 renal
NCI-H23 lung = test system: NCI-H23 lung
HOP-18 NSCLC = test system: HOP-18 NSCLC
SK-OV-3 ovarian = test system: SK-OV-3 ovarian
SR leukemia = test system: SR leukemia

CN=C1Nc2ccc(Cl)cc2C(c2ccccc2)=NN1C
TGI (COLO 205 colon): > 100 µM
TGI (K-562 leukemia): > 100 µM
TGI (A549 NSCLC): > 100 µM
TGI (NCI-H522 lung): > 100 µM
TGI (RXF 393 renal): 81.1 µM
TGI (OVCAR-8 ovarian): > 100 µM
TGI (UACC-257 melanoma): > 100 µM
TGI (UACC-62 melanoma): > 100 µM
TGI (IGROV1 ovarian): > 100 µM
TGI (HL-60(TB) leukemia): > 100 µM
TGI (MOLT-4 leukemia): > 100 µM
TGI (OVCAR-5 ovarian): > 100 µM
TGI (MALME-3M melanoma): > 100 µM
TGI (SF-539 CNS): > 100 µM
TGI (HCC-2998 colon): 64.7 µM
TGI (SNB-19 CNS): > 100 µM
TGI (LXFL 529 NSCLC): > 100 µM
TGI (OVCAR-4 ovarian): > 100 µM
TGI (SF-295 CNS): > 100 µM
TGI (CAKI-1 renal): > 100 µM
TGI (M14 melanoma): > 100 µM
TGI (DMS 114 small cell lung): > 100 µM
TGI (HT29 colon): > 100 µM
TGI (DMS 273 small cell lung): > 100 µM
TGI (HCT-116 colon): > 100 µM
TGI (SNB-78 CNS): > 100 µM
TGI (NCI-H460 lung): > 100 µM
TGI (SK-MEL-28 melanoma): > 100 µM
TGI (HCT-15 colon): > 100 µM
TGI (KM12 colon): > 100 µM
TGI (RPMI-8226 leukemia): > 100 µM
TGI (U251 CNS): > 100 µM
TGI (786-0 renal): > 100 µM
TGI (SW-620 colon): > 100 µM
TGI (TK-10 renal): > 100 µM
TGI (KM20L2 colon): > 100 µM
TGI (EKVX NSCLC): > 100 µM
TGI (SK-MEL-2 melanoma): > 100 µM
TGI (HOP-92 NSCLC): 77.5 µM
TGI (M19-MEL melanoma): > 100 µM
TGI (XF 498 CNS): > 100 µM
TGI (UO-31 renal): > 100 µM
TGI (SK-MEL-5 melanoma): > 100 µM
TGI (OVCAR-3 ovarian): > 100 µM
TGI (SN12C renal): > 100 µM
TGI (SNB-75 CNS): > 100 µM
TGI (DLD-1 colon): > 100 µM
TGI (HOP-62 NSCLC): > 100 µM
TGI (NCI-H226 lung): > 100 µM
TGI (LOX IMVI melanoma): > 100 µM
TGI (CCRF-CEM leukemia): > 100 µM
TGI (SF-268 CNS): > 100 µM
TGI (ACHN renal): > 100 µM
TGI (A498 renal): > 100 µM
TGI (RXF-631 renal): > 100 µM
TGI (NCI-H23 lung): > 100 µM

Nc1ncnc(NC2C=C(CO)C(O)C2O)c1[N+](=O)[O-] (centres undefined)
TGI (COLO 205 colon): > 100 µM
TGI (K-562 leukemia): > 100 µM
TGI (A549 NSCLC): > 100 µM
TGI (RXF 393 renal): > 100 µM
TGI (OVCAR-8 ovarian): > 100 µM
TGI (UACC-257 melanoma): > 100 µM
TGI (UACC-62 melanoma): > 100 µM
TGI (IGROV1 ovarian): > 100 µM
TGI (HL-60(TB) leukemia): > 100 µM
TGI (MOLT-4 leukemia): > 100 µM
TGI (OVCAR-5 ovarian): > 100 µM
TGI (SF-539 CNS): > 100 µM
TGI (HCC-2998 colon): > 100 µM
TGI (SNB-19 CNS): > 100 µM
TGI (LXFL 529 NSCLC): > 100 µM
TGI (OVCAR-4 ovarian): > 100 µM
TGI (SF-295 CNS): > 100 µM
TGI (CAKI-1 renal): > 100 µM
TGI (M14 melanoma): > 100 µM
TGI (DMS 114 small cell lung): > 100 µM
TGI (HT29 colon): > 100 µM
TGI (DMS 273 small cell lung): > 100 µM
TGI (HCT-116 colon): 75.4 µM
TGI (SNB-78 CNS): > 100 µM
TGI (NCI-H460 lung): > 100 µM
TGI (HOP-18 NSCLC): > 100 µM
TGI (SK-MEL-28 melanoma): > 100 µM
TGI (HCT-15 colon): > 100 µM
TGI (SK-OV-3 ovarian): > 100 µM
TGI (SR leukemia): > 100 µM
TGI (KM12 colon): > 100 µM
TGI (RPMI-8226 leukemia): > 100 µM
TGI (U251 CNS): > 100 µM
TGI (786-0 renal): > 100 µM
TGI (SW-620 colon): 59 µM
TGI (TK-10 renal): > 100 µM
TGI (KM20L2 colon): > 100 µM
TGI (EKVX NSCLC): > 100 µM
TGI (SK-MEL-2 melanoma): > 100 µM
TGI (M19-MEL melanoma): > 100 µM
TGI (UO-31 renal): > 100 µM
TGI (SK-MEL-5 melanoma): > 100 µM
TGI (OVCAR-3 ovarian): > 100 µM
TGI (SN12C renal): > 100 µM
TGI (SNB-75 CNS): > 100 µM
TGI (DLD-1 colon): > 100 µM
TGI (HOP-62 NSCLC): > 100 µM
TGI (NCI-H226 lung): > 100 µM
TGI (LOX IMVI melanoma): > 100 µM
TGI (CCRF-CEM leukemia): > 100 µM
TGI (SF-268 CNS): > 100 µM
TGI (ACHN renal): > 100 µM
TGI (A498 renal): > 100 µM
TGI (RXF-631 renal): > 100 µM
TGI (NCI-H23 lung): > 100 µM

COc1cc(/C=C2\[C@H]3c4c(c(OC)c(C)c(OC)c4OC)C[C@@H](C(=O)N2Cc2ccccc2)N3C(=O)OC(C)C)c(OC)c(C)c1OC
TGI (COLO 205 colon): > 100 µM
TGI (K-562 leukemia): > 100 µM
TGI (A549 NSCLC): > 100 µM
TGI (NCI-H522 lung): > 100 µM
TGI (RXF 393 renal): > 100 µM
TGI (OVCAR-8 ovarian): > 100 µM
TGI (UACC-257 melanoma): > 100 µM
TGI (UACC-62 melanoma): > 100 µM
TGI (IGROV1 ovarian): > 100 µM
TGI (HL-60(TB) leukemia): > 100 µM
TGI (MOLT-4 leukemia): > 100 µM
TGI (OVCAR-5 ovarian): > 100 µM
TGI (MALME-3M melanoma): > 100 µM
TGI (SF-539 CNS): > 100 µM
TGI (HCC-2998 colon): > 100 µM
TGI (LXFL 529 NSCLC): > 100 µM
TGI (OVCAR-4 ovarian): > 100 µM
TGI (SF-295 CNS): > 100 µM
TGI (M14 melanoma): > 100 µM
TGI (DMS 114 small cell lung): > 100 µM
TGI (HT29 colon): > 100 µM
TGI (DMS 273 small cell lung): > 100 µM
TGI (HCT-116 colon): > 100 µM
TGI (NCI-H460 lung): > 100 µM
TGI (HOP-18 NSCLC): > 100 µM
TGI (SK-MEL-28 melanoma): > 100 µM
TGI (SK-OV-3 ovarian): > 100 µM
TGI (SR leukemia): > 100 µM
TGI (KM12 colon): > 100 µM
TGI (RPMI-8226 leukemia): > 100 µM
TGI (U251 CNS): > 100 µM
TGI (786-0 renal): > 100 µM
TGI (SW-620 colon): > 100 µM
TGI (TK-10 renal): > 100 µM
TGI (KM20L2 colon): > 100 µM
TGI (EKVX NSCLC): > 100 µM
TGI (SK-MEL-2 melanoma): > 100 µM
TGI (HOP-92 NSCLC): > 100 µM
TGI (UO-31 renal): > 100 µM
TGI (SK-MEL-5 melanoma): > 100 µM
TGI (OVCAR-3 ovarian): > 100 µM
TGI (SN12C renal): > 100 µM
TGI (SNB-75 CNS): > 100 µM
TGI (DLD-1 colon): > 100 µM
TGI (HOP-62 NSCLC): > 100 µM
TGI (NCI-H226 lung): 56.2 µM
TGI (LOX IMVI melanoma): > 100 µM
TGI (CCRF-CEM leukemia): > 100 µM
TGI (SF-268 CNS): > 100 µM
TGI (ACHN renal): > 100 µM
TGI (A498 renal): > 100 µM
TGI (RXF-631 renal): > 100 µM
TGI (NCI-H23 lung): > 100 µM

— PubChem BioAssay (NCI)
